# Laboratory results: US9687479B2, “Multisubstituted aromatic compounds as serine protease inhibitors” (VERSEON CORPORATION, priority 2013, dated 2017)
# Biological target: Human thrombin (Homo sapiens (Human), UniProt P00734)
# Assay: Thrombin protease activity inhibition assay (chromogenic substrate S-2238)
# Format: biochemical
# Conditions: 3 nM thrombin, 125 μM S-2238, 10 min pre-incubation, RT
# Description: The thrombin activity reported herein (e.g., Table A) was obtained as follows. […] Thrombin was assayed in buffer containing 0.05 M Tris (pH 7.4), 0.015 M NaCl and 0.01% PEG-8000. The final concentration of enzyme used was 3 nM thrombin. […] All assays were performed in 96-well microtiter plates at room temperature (RT). […] Inhibitor IC50 values were determined by adding test compound as ten point, three-fold serial dilutions in buffer solution, as known in the art. The plate was read at 10 minutes after substrate addition. The IC50 was calculated by plotting the percent (%) inhibition against compound concentration and fitting the data to a constrained four parameter sigmoidal curve, as known in the art.
row,SMILES,IC50 [nM]
1,"Cn1cccc(-c2cc(NCc3ccc(Cl)s3)n(C(=O)c3cccc4c3OCCO4)n2)c1=O [Cmpd 120, 3-(5-[(5-chlorothiophen-2-yl)methyl]amino-1-[(2,3-dihydro-1,4-benzodioxin-5-yl)carbonyl]-1H-pyrazol-3-yl)-1-methyl-1,2-dihydropyridin-2-one]",< 100
2,"O=C(c1ccco1)n1nc(-c2cccn(Cc3ccsc3)c2=O)cc1NCc1ccc(Cl)s1 [Cmpd 169, 3-(5-[(5-chlorothiophen-2-yl)methyl]amino-1-[(furan-2-yl)carbonyl]-1H-pyrazol-3-yl)-1-(thiophen-3-ylmethyl)-1,2-dihydropyridin-2-one]",< 100
3,"CCOC(=O)Cn1cccc(-c2cc(NCc3ccc(Cl)s3)n(C(=O)C(C)(C)C)n2)c1=O [Cmpd 257, ethyl 2-[3-(5-[(5-chlorothiophen-2-yl)methyl]amino-1-(2,2-dimethylpropanoyl)-1H-pyrazol-3-yl)-2-oxo-1,2-dihydropyridin-1-yl]acetate]",< 100
4,"COCC(C)(C)C(=O)n1nc(-c2cccn(Cc3ccccc3)c2=O)cc1NCc1ccc(Cl)s1 [Cmpd 44, 1-benzyl-3-(5-[(5-chlorothiophen-2-yl)methyl]amino-1-(3-methoxy-2,2-dimethylpropanoyl)-1H-pyrazol-3-yl)-1,2-dihydropyridin-2-one]",< 100
5,"CC(C)(C)C(=O)n1nc(-c2cccn(Cc3ccccc3Cl)c2=O)cc1NCc1ccc(Cl)s1 [Cmpd 27, 1-[(2-chlorophenyl)methyl]-3-(5-[(5-chlorothiophen-2-yl)methyl]amino-1-(2,2-dimethylpropanoyl)-1H-pyrazol-3-yl)-1,2-dihydropyridin-2-one]",< 100
6,"CC1(C(=O)n2nc(-c3cccn(Cc4ccsc4)c3=O)cc2NCc2ccc(Cl)s2)CCOCC1 [Cmpd 158, 3-(5-[(5-chlorothiophen-2-yl)methyl]amino-1-[(4-methyloxan-4-yl)carbonyl]-1H-pyrazol-3-yl)-1-(thiophen-3-ylmethyl)-1,2-dihydropyridin-2-one]",< 100
7,"O=C(c1ccco1)n1nc(-c2cccn(Cc3cccnn3)c2=O)cc1NCc1ccc(Cl)s1 [Cmpd 163, 3-(5-[(5-chlorothiophen-2-yl)methyl]amino-1-[(furan-2-yl)carbonyl]-1H-pyrazol-3-yl)-1-(pyridazin-3-ylmethyl)-1,2-dihydropyridin-2-one]",> 100000
8,"O=C(c1cccs1)n1nc(-c2cccn(Cc3cccs3)c2=O)cc1NCc1ccc(Cl)s1 [Cmpd 190, 3-(5-[(5-chlorothiophen-2-yl)methyl]amino-1-[(thiophen-2-yl)carbonyl]-1H-pyrazol-3-yl)-1-(thiophen-2-ylmethyl)-1,2-dihydropyridin-2-one]",< 100
9,"CC1(C(=O)n2nc(-c3cccn(Cc4cccnn4)c3=O)cc2NCc2ccc(Cl)s2)CCOCC1 [Cmpd 152, 3-(5-[(5-chlorothiophen-2-yl)methyl]amino-1-[(4-methyloxan-4-yl)carbonyl]-1H-pyrazol-3-yl)-1-(pyridazin-3-ylmethyl)-1,2-dihydropyridin-2-one]",< 100
10,"COc1ccc(C(=O)n2nc(-c3cccn(Cc4cccnn4)c3=O)cc2NCc2ccc(Cl)s2)c(OC)c1 [Cmpd 124, 3-(5-[(5-chlorothiophen-2-yl)methyl]amino-1-[(2,4-dimethoxyphenyl)carbonyl]-1H-pyrazol-3-yl)-1-(pyridazin-3-ylmethyl)-1,2-dihydropyridin-2-one]",< 100
11,"O=C(c1ccccc1)n1nc(-c2cccn(Cc3ccccc3)c2=O)cc1NCc1ccc(Cl)s1 [Cmpd 72, 3-(1-benzoyl-5-[(5-chlorothiophen-2-yl)methyl]amino-1H-pyrazol-3-yl)-1-benzyl-1,2-dihydropyridin-2-one]",< 100
12,"O=C(c1cccs1)n1nc(-c2cccn(Cc3ccncc3)c2=O)cc1NCc1ccc(Cl)s1 [Cmpd 188, 3-(5-[(5-chlorothiophen-2-yl)methyl]amino-1-[(thiophen-2-yl)carbonyl]-1H-pyrazol-3-yl)-1-(pyridin-4-ylmethyl)-1,2-dihydropyridin-2-one]",< 100
13,"CC(C)(C)C(=O)n1nc(-c2cccn(Cc3ncccn3)c2=O)cc1NCc1ccc(Cl)s1 [Cmpd 85, 3-(5-[(5-chlorothiophen-2-yl)methyl]amino-1-(2,2-dimethylpropanoyl)-1H-pyrazol-3-yl)-1-(pyrimidin-2-ylmethyl)-1,2-dihydropyridin-2-one]",< 100
14,"COc1ccccc1C(=O)n1nc(-c2cccn(CCN3CCOCC3)c2=O)cc1NCc1ccc(Cl)s1 [Cmpd 146, 3-(5-[(5-chlorothiophen-2-yl)methyl]amino-1-[(2-methoxyphenyl)carbonyl]-1H-pyrazol-3-yl)-1-[2-(morpholin-4-yl)ethyl]-1,2-dihydropyridin-2-one]",< 100
15,"CC(C)(CO)C(=O)n1nc(-c2ccc[nH]c2=O)cc1NCc1ccc(Cl)s1 [Cmpd 91, 3-(5-[(5-chlorothiophen-2-yl)methyl]amino-1-(3-hydroxy-2,2-dimethylpropanoyl)-1H-pyrazol-3-yl)-1,2-dihydropyridin-2-one]",< 100
16,"O=C(c1cccc2c1OCCO2)n1nc(-c2cccn(Cc3ccncc3)c2=O)cc1NCc1ccc(Cl)s1 [Cmpd 115, 3-(5-[(5-chlorothiophen-2-yl)methyl]amino-1-[(2,3-dihydro-1,4-benzodioxin-5-yl)carbonyl]-1H-pyrazol-3-yl)-1-(pyridin-4-ylmethyl)-1,2-dihydropyridin-2-one]",< 100
17,"O=C(c1ccccc1Cl)n1nc(-c2cccn(Cc3cccnn3)c2=O)cc1NCc1ccc(Cl)s1 [Cmpd 245, 3-1-[(2-chlorophenyl)carbonyl]-5-[(5-chlorothiophen-2-yl)methyl]amino-1H-pyrazol-3-yl-1-(pyridazin-3-ylmethyl)-1,2-dihydropyridin-2-one]",< 100
18,"O=C(c1ccc(N2CCOCC2)cc1)n1nc(-c2ccc[nH]c2=O)cc1NCc1ccc(Cl)s1 [Cmpd 207, 3-(5-[(5-chlorothiophen-2-yl)methyl]amino-1-[4-(morpholin-4-yl)phenyl]carbonyl-1H-pyrazol-3-yl)-1,2-dihydropyridin-2-one]",< 100
19,"CC(C)(C)C(=O)n1nc(-c2cccn(Cc3ccoc3)c2=O)cc1NCc1ccc(Cl)s1 [Cmpd 78, 3-(5-[(5-chlorothiophen-2-yl)methyl]amino-1-(2,2-dimethylpropanoyl)-1H-pyrazol-3-yl)-1-(furan-3-ylmethyl)-1,2-dihydropyridin-2-one]",< 100
20,"CC1(C(=O)n2nc(-c3cccn(Cc4ccoc4)c3=O)cc2NCc2ccc(Cl)s2)CCOCC1 [Cmpd 151, 3-(5-[(5-chlorothiophen-2-yl)methyl]amino-1-[(4-methyloxan-4-yl)carbonyl]-1H-pyrazol-3-yl)-1-(furan-3-ylmethyl)-1,2-dihydropyridin-2-one]",< 100
21,"COc1ccc(C(=O)n2nc(-c3cccn(Cc4ncccn4)c3=O)cc2NCc2ccc(Cl)s2)c(OC)c1 [Cmpd 128, 3-(5-[(5-chlorothiophen-2-yl)methyl]amino-1-[(2,4-dimethoxyphenyl)carbonyl]-1H-pyrazol-3-yl)-1-(pyrimidin-2-ylmethyl)-1,2-dihydropyridin-2-one]",> 100000
22,"O=c1c(-c2cc(NCc3ccc(Cl)s3)[nH]n2)cccn1Cc1cccc(Cl)c1 [Cmpd 34, 1-[(3-chlorophenyl)methyl]-3-(5-[(5-chlorothiophen-2-yl)methyl]amino-1H-pyrazol-3-yl)-1,2-dihydropyridin-2-one]",1000 to 10000
23,"O=C(c1ccccc1Cl)n1nc(-c2cccn(Cc3ccccn3)c2=O)cc1NCc1ccc(Cl)s1 [Cmpd 246, 3-1-[(2-chlorophenyl)carbonyl]-5-[(5-chlorothiophen-2-yl)methyl]amino-1H-pyrazol-3-yl-1-(pyridin-2-ylmethyl)-1,2-dihydropyridin-2-one]",< 100
24,"N#CCn1cccc(-c2cc(NCc3ccc(Cl)s3)[nH]n2)c1=O [Cmpd 60, 2-[3-(5-[(5-chlorothiophen-2-yl)methyl]amino-1H-pyrazol-3-yl)-2-oxo-1,2-dihydropyridin-1-yl]acetonitrile]",10000 to 100000
25,"O=C(c1ccc(N2CCOCC2)cc1)n1nc(-c2cccn(Cc3ncccn3)c2=O)cc1NCc1ccc(Cl)s1 [Cmpd 215, 3-(5-[(5-chlorothiophen-2-yl)methyl]amino-1-[4-(morpholin-4-yl)phenyl]carbonyl-1H-pyrazol-3-yl)-1-(pyrimidin-2-ylmethyl)-1,2-dihydropyridin-2-one]",< 100
26,"O=C(c1ccoc1)n1nc(-c2cccn(Cc3cccc(Cl)c3)c2=O)cc1NCc1ccc(Cl)s1 [Cmpd 33, 1-[(3-chlorophenyl)methyl]-3-(5-[(5-chlorothiophen-2-yl)methyl]amino-1-[(furan-3-yl)carbonyl]-1H-pyrazol-3-yl)-1,2-dihydropyridin-2-one]",< 100
27,"COc1ccccc1C(=O)n1nc(-c2cccn(Cc3ccncc3)c2=O)cc1NCc1ccc(Cl)s1 [Cmpd 141, 3-(5-[(5-chlorothiophen-2-yl)methyl]amino-1-[(2-methoxyphenyl)carbonyl]-1H-pyrazol-3-yl)-1-(pyridin-4-ylmethyl)-1,2-dihydropyridin-2-one]",< 100
28,"O=C(c1ccoc1)n1nc(-c2cccn(Cc3ccc(Cl)cc3)c2=O)cc1NCc1ccc(Cl)s1 [Cmpd 37, 1-[(4-chlorophenyl)methyl]-3-(5-[(5-chlorothiophen-2-yl)methyl]amino-1-[(furan-3-yl)carbonyl]-1H-pyrazol-3-yl)-1,2-dihydropyridin-2-one]",< 100
29,"O=C(c1cccs1)n1nc(-c2cccn(Cc3cccnc3)c2=O)cc1NCc1ccc(Cl)s1 [Cmpd 187, 3-(5-[(5-chlorothiophen-2-yl)methyl]amino-1-[(thiophen-2-yl)carbonyl]-1H-pyrazol-3-yl)-1-(pyridin-3-ylmethyl)-1,2-dihydropyridin-2-one]",< 100
